Assay results published in US10292962B2, “Pharmaceutical combination comprising metformin and dihydroquercetin and its use for the treatment of cancer” (RESEARCH INSTITUTE FOR NUTRITION AND AGING CO., LTD., priority 2013, dated 2019).

What was measured:
WI-38 cells [1] = experiment: Metformin-induced lactate production in human lung fibroblast cell line WI-38 (Example 3); format: cell-based; settings: dihydroquercetin 1 mmol/L added 1 hr before metformin 20 mmol/L, 6 hr, vs metformin single (FIG. 3)
Method: After the culture, the conditioned medium was sampled, and the concentration of lactate contained in the medium was measured and evaluated.
Medium containing the given concentration of dihydroquercetin was added to each well and the cells were cultured for 1 hr. […] Using the Lactate Assay Kit II (BioVision) catalog no. K627-100, lactate concentration was measured.

[2] = test system: phospho-4E-BP1 (Thr37/Thr46) protein; experiment: Relative phospho-4E-BP1 protein amount (ELISA) in human liver cancer cell line HuH-7 (Example 4); format: cell-based; settings: metformin 5 mmol/L, dihydroquercetin 0.2 mmol/L, single or combined, 6 hr, control 84.1
Method: (§1) On the following day after cell seeding, test substances were added and the cells were cultured for 6 hr before harvesting them. The amounts of relative phospho-4E-BP1 protein contained in the prepared whole cell lysates were measured and evaluated. Each group (N=3) was treated as follows: • (1) Control (vehicle control) group: 1% ethanol containing medium • (2) Metformin single-treated group: metformin 5 mmol/L • (3) Dihydroquercetin single-treated group: dihydroquercetin 0.2 mmol/L • (4) Combined-treated group: metformin 5 mmol/L+dihydroquercetin 0.2 mmol/L
The passage-cultured HuH-7 cells were dissociated with trypsin, and suspended in fresh medium. The cell density of the cell suspension was determined using a hematocytometer and adjusted to 2.5×10^5 cells/mL. The cells were seeded on 12-well multiwell culture plate at 1 mL per well, and cultured overnight under the conditions of 37° C., 5% CO2. […] Upon centrifugation, the supernatants were sampled, and the amounts of relative phospho-4E-BP1 (Thr37/Thr46) protein in the samples were quantified using ELISA kits in the same manner as in Example 1. The concentrations of the total protein in the whole cell lysates were measured using BCA protein assay, and the relative phospho-4E-BP1 protein amount of each well was normalized with the total protein amount. […]

[3] = test system: phospho-4E-BP1 (Thr37/Thr46) protein; experiment: Relative phospho-4E-BP1 protein amount (ELISA) in human breast cancer cell line MDA-MB-231 (Example 5); format: cell-based; settings: metformin 5 mmol/L, dihydroquercetin 0.2 mmol/L, single or combined, 6 hr, control 33.3
Method: as §1
The passage-cultured MDA-MB-231 cells were dissociated with trypsin, and suspended in fresh medium. The cell density of the cell suspension was determined using a hematocytometor and adjusted to 2.5×10^5 cells/mL. The cells were seeded on 12-well multiwell culture plate at 1 mL per well, and cultured overnight under the conditions of 37° C., 5% CO2. […] Upon centrifugation, the supernatants were sampled, and the amounts of relative phospho-4E-BP1 (Thr37/Thr46) protein in the samples were quantified using ELISA kits in the same manner as in Example 1. The concentrations of total protein in the whole cell lysates were measured using BOA protein assay, and the relative phospho-4E-BP1 protein amount of each well was normalized with the total protein amount. […]

[4] = test system: phospho-4E-BP1 (Thr37/Thr46) protein; experiment: Relative phospho-4E-BP1 protein amount (ELISA) in human prostate cancer cell line 22Rv1 (Example 6); format: cell-based; settings: metformin 10 mmol/L, dihydroquercetin 0.2 mmol/L, single or combined, 6 hr, control 51.0
Method: On the following day after cell seeding, test substances were added and the cells were cultured for 6 hr before harvesting them. The amounts of relative phospho-4E-BP1 protein contained in the prepared whole cell lysates were measured and evaluated. Each group (N=3) was treated as follows: • (1) Control (vehicle control) group: 1% ethanol containing medium • (2) Metformin single-treated group: metformin 10 mmol/L • (3) Dihydroquercetin single-treated group: dihydroquercetin 0.2 mmol/L • (4) Combined-treated group: metformin 10 mmol/L+dihydroquercetin 0.2 mmol/L
The passage-cultured 22Rv1 cells were dissociated with trypsin, and suspended in fresh medium. The cell density of the cell suspension was determined using a hematocytometer and adjusted to 2.5×10^5 cells/mL. The cells were seeded on 12-well multiwell culture plate at 1 mL per well, and cultured overnight under the conditions of 37° C., 5% CO2. […] Upon centrifugation, the supernatants were sampled, and the amounts of relative phospho-4E-BP1 (Thr37/Thr46) protein in the samples were quantified using ELISA kits in the same manner as in Example 1. The concentrations of total protein in the whole cell lysates were measured using BCA protein assay, and the relative phospho-4E-BP1 protein amount of each well was normalized with the total protein amount. […]

[5] = test system: phospho-4E-BP1 (Thr37/Thr46) protein; experiment: Relative phospho-4E-BP1 protein amount (ELISA) in human bile duct cancer cell line HuH-28 (Example 7); format: cell-based; settings: metformin 20 mmol/L, dihydroquercetin 0.2 mmol/L, single or combined, 6 hr, control 58.8
Method: On the following day after cell seeding, test substances were added and the cells were cultured for 6 hr before harvesting them. The amounts of relative phospho-4E-BP1 protein contained in the prepared whole cell lysates were measured and evaluated. Each group (N=3) was treated as follows: • (1) Control (vehicle control) group: 1% ethanol containing medium • (2) Metformin single-treated group: metformin 20 mmol/L • (3) dihydroquercetin single-treated group: dihydroquercetin 0.2 mmol/L • (4) combined-treated group: metformin 20 mmol/L+dihydroquercetin 0.2 mmol/L
The passage-cultured HuH-28 cells were dissociated with trypsin, and suspended in the medium. The cell density of the cell suspension was determined using a hematocytometer and adjusted to 2.5×10^5 cells/mL. The cells were seeded on 12-well multiwell culture plate at 1 mL per well, and cultured overnight under the conditions of 37° C., 5% CO2. […] Upon centrifugation, the supernatants were sampled, and the amounts of relative phospho-4E-BP1 (Thr37/Thr46) protein in the samples were quantified using ELISA kits in the same manner as in Example 1. The total protein concentrations in the whole cell lysates were measured using BCA protein assay, and the relative phospho-4E-BP1 protein amount of each well was normalized with the total protein amount. […]

[6] = test system: phospho-4E-BP1 (Thr37/Thr46) protein; experiment: Relative phospho-4E-BP1 protein amount (ELISA) in human ovarian cancer cell line Caov-3 (Example 8); format: cell-based; settings: metformin 20 mmol/L, dihydroquercetin 0.2 mmol/L, single or combined, 6 hr, control 21.6
Method: On the following day after cell seeding, test substances were added and the cells were cultured for 6 hr before harvesting them. The amounts of relative phospho-4E-BP1 protein contained in the prepared whole cell lysates were measured and evaluated. Each group (N=3) was treated as follows: • (1) Control (vehicle control) group: 1% ethanol containing medium • (2) Metformin single-treated group: metformin 20 mmol/L • (3) Dihydroquercetin single-treated group: dihydroquercetin 0.2 mmol/L • (4) Combined-treated group: metformin 20 mmol/L+dihydroquercetin 0.2 mmol/L
The passage-cultured Caov-3 cells were dissociated with trypsin, and suspended in fresh medium. The cell density of the cell suspension was determined using a hematocytometer and adjusted to 2.5×10^5 cells/mL. The cells were seeded on 12-well multiwell culture plate at 1 mL per well, and cultured overnight under the conditions of 37° C., 5% CO2. […] Upon centrifugation, the supernatants were sampled, and the amounts of relative phospho-4E-BP1 (Thr37/Thr46) protein in the samples were quantified using ELISA kits in the same manner as in Example 1. The total protein concentrations in the whole cell lysates were measured using BCA protein assay, and the relative phospho-4E-BP1 protein amount of each well was normalized with the total protein amount. […]

[7] = test system: phospho-4E-BP1 (Thr37/Thr46) protein; experiment: Relative phospho-4E-BP1 protein amount (ELISA) in human pancreatic cancer cell line AsPC-1, 24 hr (Example 9); format: cell-based; settings: single or combined
Method: Each group (N=3) was treated as follows. • (1) Control (vehicle control) group: 1% ethanol containing medium • (2) Metformin single-treated group: metformin 1.5, 3 and 6 mmol/L • (3) Dihydroquercetin-single treated group: dihydroquercetin 0.3 mmol/L • (4) Combined-treated group: metformin 1.5, 3 and 6 mmol/L+dihydroquercetin 0.3 mmol/L
The passage-cultured AsPC-1 cells were dissociated with trypsin, and suspended in fresh medium. The cell density of the cell suspension was determined using a hematocytometer and adjusted to 2.5×10^5 cells/mL. The cells were seeded on 12-well multiwell culture plate at 1 mL per well, and cultured overnight under the conditions of 37° C., 5% CO2. On the following day, medium containing metformin or dihydroquercetin or both metformin and dihydroquercetin, at the given concentration, was added into each well. After incubation under the conditions of 37° C., 5% CO2 for 24 hr, the cells in each well were washed twice with D-PBS, and whole cell lysates were prepared using cell lysis buffer. Upon centrifugation, the supernatants were sampled, and the amounts of relative phospho-4E-BP1 (Thr37/Thr46) protein in the samples were quantified using ELISA kits in the same manner as in Example 1. The concentrations of total protein in the whole cell lysates were measured using BCA protein assay, and the relative phospho-4E-BP1 protein amount of each well was normalized with the total protein amount.
To evaluate the influence of the combined use on relative phospho-4E-BP1 protein amount, Dunnett test was performed to compare the combined-treated group with each single agent-treated group. […] The differences were considered statistically significant when the p value was less than 0.05.

WI-38 cells [8] = experiment: Lactate production in human lung fibroblast cell line WI-38, racemate and optically-active dihydroquercetin (Example 10); settings: for Metformin-induced lactate production: dihydroquercetin 1 mmol/L added 1 hr before metformin 20 mmol/L, 6 hr (FIG. 4, FIG. 5); for Lactate production: dihydroquercetin 1 mmol/L single, compared with the control group (FIG. 4, FIG. 5)
Method: On the following day after cell seeding, dihydroquercetin was added and the cells were cultured for 1 hr. Then, metformin was added and the cells were cultured for 6 hr. The conditioned medium was sampled, and the concentration of the lactate contained in the medium was measured and evaluated. Each group (N=3) was treated as follows: • (1) Control (vehicle control) group: 1% ethanol containing medium • (2) Dihydroquercetin single-treated group: dihydroquercetin 1 mmol/L • (3) Metformin single-treated group: metformin 20 mmol/L • (4) Combined-treated group: metformin 20 mmol/L+dihydroquercetin 1 mmol/L
The passage-cultured WI-38 cells were dissociated with trypsin, and suspended in fresh medium. The cell density of the cell suspension was determined using a hematocytometer and adjusted to 2.5×10^5 cells/mL. The cells were seeded on 24-well multiwell culture plate (IWAKI) at 0.5 mL per well, and cultured overnight under the conditions of 37° C., 5% CO2. Thereto was added a medium containing a given concentration of dihydroquercetin and the cells were cultured for 1 hr, a medium containing a given concentration of metformin was added and the cells were further cultured for 6 hr. After culture, the culture supernatant from each well was sampled and passed through a filter for molecular weight cut-off 10 kDa to obtain the filtrate. Using the Lactate Assay Kit II (BioVision) catalog no. K627-100, lactate concentration was measured. The cells after sampling of the culture supernatant were washed twice with D-PBS, and cell lysis buffer was added to prepare whole cell lysates. The concentrations of the protein in the whole cell lysates were measured using BCA protein assay, and the lactate concentration of each well was normalized with the protein concentration.
To evaluate the influence of dihydroquercetin on the metformin-induced produced lactate content, the Student's t-test was performed for the concentration of lactate in the medium between the control group and the dihydroquercetin single agent treated group, and between the control group and the metformin single agent treated group. In addition, to evaluate an influence of the combination of dihydroquercetin and metformin for normalized produced lactate content, a two-way ANOVA (two-tailed) (factors: group and concentration) was performed between the dihydroquercetin single agent treated group (groups 1 and 2) and the metformin treated group (groups 3 and 4). […] The analysis was performed using SAS software Release 9.3 (SAS Institute Japan). The differences were considered statistically significant when the p value was less than 0.05.

[9] = test system: phospho-4E-BP1 (Thr37/Thr46) protein; experiment: Relative phospho-4E-BP1 protein amount (ELISA) in AsPC-1, dihydroquercetin single agent (Example 11); format: cell-based, human
Method: To evaluate the dose dependency of dihydroquercetin on the relative phospho-4E-BP1 protein amount, the linear regression analysis was performed. As a result, dose dependency was observed. Then, the Williams' test (one-tailed) was performed between the control group and the single agent treated group. As a result, a significant suppressive action of dihydroquercetin at not less than 0.5 mmol/L on relative phospho-4E-BP1 protein amount was observed.

AsPC-1 cells = experiment: Proportion of CD44 and CD24 double positive cells (cancer stem cell surface markers) in AsPC-1 by flow cytometry (Example 12); format: cell-based, human; settings: 72 hr, dihydroquercetin 0.3 mmol/L, metformin 15 mmol/L + dihydroquercetin 0.3 mmol/L, or gemcitabine 100 nmol/L, compared with the control group (FIG. 7)
Method: Each group (N=10) was treated as follows: • (1) Control (vehicle control) group: 1.5% distilled water, 0.3% ethanol and 0.1% DMSO containing medium • (2) Metformin single-treated group: metformin 15 mmol/L • (3) Dihydroquercetin single-treated group: dihydroquercetin 0.3 mmol/L • (4) Metformin-dihydroquercetin combined-treated group: metformin 15 mmol/L+dihydroquercetin 0.3 mmol/L • (5) Gemcitabine single-treated group: gemcitabine 100 nmol/L • (6) Metformin.dihydroquercetin.gemcitabine combined-treated group: metformin 15 mmol/L+dihydroquercetin 0.3 mmol/L+gemcitabine 100 nmol/L
The passage-cultured AsPC-1 cells were dissociated with trypsin, and suspended in fresh medium. The cell density of the cell suspension was determined using a hematocytometer and adjusted to 2×10^4 cells/mL. The cells were seeded on 6-well multiwell culture plate (IWAKI) at 3 mL per well, and cultured overnight under the conditions of 37° C., 5% CO2. […] After washing with FACS (fluorescence activated cell sorting) buffer, the cells were stained with FITC-labeled anti-human CD44 antibody and APC-labeled anti-human CD24 antibody, and treated at 4° C. for 30 min. Thereafter, the cells were washed with the FACS buffer, passed through a 40 micron mesh filter, and the proportion of CD44 and CD24 double positive cells was determined using the flow cytometer (Nippon Becton Dickinson and Company, Ltd.). […]

[10] = metformin:dihydroquercetin = 1.5 mmol/L:0.3 mmol/L, control 107.3
[11] = metformin:dihydroquercetin = 3 mmol/L:0.3 mmol/L, control 33.5
[12] = metformin:dihydroquercetin = 6 mmol/L:0.3 mmol/L, control 107.3

## O=C1c2c(O)cc(O)cc2OC(c2ccc(O)c(O)c2)C1O (racemic) [Dihydroquercetin, dihydroquercetin]
WI-38 cells [1]
  Lactate production induced by metformin: significantly suppressed the lactate production induced by metformin
[2]
  Relative phospho-4E-BP1 protein amount MEAN: 59.7
[3]
  Relative phospho-4E-BP1 protein amount MEAN: 25.9
[4]
  Relative phospho-4E-BP1 protein amount MEAN: 53.1
[5]
  Relative phospho-4E-BP1 protein amount MEAN: 54.2
[6]
  Relative phospho-4E-BP1 protein amount MEAN: 21.0
[7]; [10]
  Relative phospho-4E-BP1 protein amount MEAN: 97.4
[7]; [11]
  Relative phospho-4E-BP1 protein amount MEAN: 37.2
[7]; [12]
  Relative phospho-4E-BP1 protein amount MEAN: 89.7
WI-38 cells [8]
  Metformin-induced lactate production: significantly suppressed
  Lactate production: suppressed lactate production
[9]; 6 hr, Williams' test vs control group
  Concentration of dihydroquercetin with significant suppressive action on relative phospho-4E-BP1 protein amount: not less than 0.5 mmol/L
[9]; dihydroquercetin 0.5 and 1 mmol/L single agent, 6 hr (FIG. 6)
  Relative phospho-4E-BP1 protein amount: dose-dependent suppressive effect
AsPC-1 cells
  Proportion of CD44 and CD24 double positive cells: significantly decreased

## Nc1ccn([C@@H]2O[C@H](CO)[C@@H](O)C2(F)F)c(=O)n1 [Gemcitabine, gemcitabine, reference compound]
AsPC-1 cells
  Proportion of CD44 and CD24 double positive cells: significantly increased

## CN(C)C(=N)N=C(N)N [Metformin, metformin]
[2]
  Relative phospho-4E-BP1 protein amount MEAN: 61.7
[3]
  Relative phospho-4E-BP1 protein amount MEAN: 37.1
[4]
  Relative phospho-4E-BP1 protein amount MEAN: 57.3
[5]
  Relative phospho-4E-BP1 protein amount MEAN: 55.2
[6]
  Relative phospho-4E-BP1 protein amount MEAN: 22.0
[7]; [10]
  Relative phospho-4E-BP1 protein amount MEAN: 83.1
[7]; [11]
  Relative phospho-4E-BP1 protein amount MEAN: 36.9
[7]; [12]
  Relative phospho-4E-BP1 protein amount MEAN: 83.1

## O=C1c2c(O)cc(O)cc2O[C@H](c2ccc(O)c(O)c2)[C@H]1O [optically-active dihydroquercetin, (2R,3R)-dihydroquercetin]
WI-38 cells [8]
  Metformin-induced lactate production: significantly suppressed
  Lactate production: suppressed lactate production
